Read-outs that look alike come from different tables or passages of the source. Positions of bridges follow the written chain, without caps; N, C: chain ends. Non-standard residues stand in square brackets, D forms with d. Residues, ends and D or L forms follow the SMILES beside them. dPhe(4-CN) = N#Cc1ccc(C[C@@H](N)C(=O)O)cc1; Orn = NCCC[C@H](N)C(=O)O

We go through 15 molecules from patent US9040663B2, “Melanocortin receptor-specific peptides” (AstraZeneca AB, priority 2009, dated 2015).

Assay [1] concerns the target T1, hMC4-R (Homo sapiens (Human), UniProt P32245). Briefly: High and low density hMC4-R functional assay (cAMP, HEK293-T-REx-MC4-R cells). The assay is classed as cell-based. Conditions: for Emax: NDP-α-MSH = 100%, read-out: Intrinsic Activity (%).
In assay [2] the target is T1, hMC4-R. Kind of assay: Competitive inhibition binding assay using [I125]-NDP-α-MSH, hMC4-R. Conditions: membranes of HEK-293 cells expressing recombinant hMC4-R, read-out: MC4-R Ki.
The next assay deals with MC1-R. Briefly: Competitive inhibition binding assay using [I125]-NDP-α-MSH, MC1-R. Conditions: membranes of B-16 mouse melanoma cells (endogenous MC1-R), in some instances HEK-293 hMC1-R. The procedure: 7.1 Competitive Inhibition Assay using [I^125]-NDP-α-MSH.
A competitive inhibition binding assay was performed for exemplified peptides according to the invention using membrane homogenates prepared from HEK-293 cells that express recombinant hMC4-R, hMC3-R, or hMC5-R, and from B-16 mouse melanoma cells (containing endogenous MC1-R). In some instances, HEK-293 cells that express recombinant hMC1-R were employed. Assays were performed in 96 well GF/B Millipore multiscreen filtration plates (MAFB NOB10) pre-coated with 0.5% bovine serum albumin (Fraction V). Membrane homogenates were incubated with 0.2 nM (for hMC4-R) 0.4 nM (for MC3-R and MC5-R) or 0.1 nM (for mouse B16 MC1-R or hMC1-R) [I^125]-NDP-α-MSH (Perkin Elmer) and increasing concentrations of test peptides of the present invention in buffer containing 25 mM HEPES buffer (pH 7.5) with 100 mM NaCl, 2 mM CaCl2, 2 mM MgCl2, 0.3 mM 1,10-phenanthroline, and 0.2% bovine serum albumin. After incubation for 60 minutes at 37° C., the assay mixture was filtered and the membranes washed three times with ice-cold buffer. Filters were dried and counted in a gamma counter for bound radioactivity. […] Maximal specific binding (100%) was defined as the difference in radioactivity (cpm) bound to cell membranes in the absence and presence of 1 μM NDP-α-MSH. […] Each assay was conducted in triplicate and the actual mean values are described, with results less than 0% reported as 0%. Ki values for test peptides of the present invention were determined using Graph-Pad Prism® curve-fitting software.

The mark [3] stands for this setting: 0.1 ng/mL Doxycycline (low density hMC4-R system).
Setting [4] is: 10 ng/mL Doxycycline (high density hMC4-R system).

T1 sequence (P32245 whole entry): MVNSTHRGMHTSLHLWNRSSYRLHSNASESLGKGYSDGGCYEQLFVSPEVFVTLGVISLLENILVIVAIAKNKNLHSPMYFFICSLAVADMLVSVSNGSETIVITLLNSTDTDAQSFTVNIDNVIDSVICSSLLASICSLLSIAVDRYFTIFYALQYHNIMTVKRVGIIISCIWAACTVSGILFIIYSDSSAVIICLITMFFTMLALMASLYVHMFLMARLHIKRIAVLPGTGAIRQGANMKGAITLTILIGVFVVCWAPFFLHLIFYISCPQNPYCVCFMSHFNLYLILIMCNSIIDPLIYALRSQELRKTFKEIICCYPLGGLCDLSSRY

As usually defined, the EC50 is the concentration needed to bring the measured effect to its halfway point. A lower EC50 goes with higher potency in that assay. For orientation: Ki means a dissociation constant, usually derived from enzyme kinetics or from competition with a known ligand. As to `CC(=O)N[C@@H](CCCNC(=N)N)C(=O)N[C@H]1CCC(=O)NCCC[C@@H](C(N)=O)NC(=O)[C@H](Cc2c[nH]c3ccccc23)NC(=O)[C@H](CCCNC(=N)N)NC(=O)[C@@H](Cc2ccccc2Cl)NC(=O)[C@H](CCN)NC1=O` [Example 1, Ac-Arg-cyclo(Glu-Dab-D-Phe(2-Cl)-Arg-Trp-Orn)-NH2], the EC50 on hMC4-R [1] (setting [3]) is 0.34 nM; on hMC4-R [1] (setting [4]), 0.045 nM. For the same molecule, the Emax turned out to be 91% on hMC4-R [1] (setting [3]) and 96% at hMC4-R [1] (setting [4]). The Ki at hMC4-R [2] is 3 nM; on MC1-R it was 1 nM.
As for `CC(=O)N[C@@H](CCCNC(=N)N)C(=O)N[C@H]1CCC(=O)NCCC[C@@H](C(N)=O)NC(=O)[C@H](Cc2c[nH]c3ccccc23)NC(=O)[C@H](CCCNC(=N)N)NC(=O)[C@@H](Cc2ccc(Cl)cc2)NC(=O)[C@H](CCN)NC1=O` [Example 3, Ac-Arg-cyclo(Glu-Dab-D-Phe(4-Cl)-Arg-Trp-Orn)-NH2], the results for the EC50 at hMC4-R [1] (setting [3]) and on hMC4-R [1] (setting [4]) were 0.07 nM and 0.16 nM, respectively. Moreover, the Emax at hMC4-R [1] (setting [3]) is 28%; on hMC4-R [1] (setting [4]), 100%. For the same molecule, the values for the Ki on hMC4-R [2] and on MC1-R were 0.08 nM and 0.3 nM, respectively.
Consider `CC(=O)N[C@@H](CCCNC(=N)N)C(=O)N[C@H]1CCC(=O)NCCC[C@@H](C(N)=O)NC(=O)[C@H](Cc2c[nH]c3ccccc23)NC(=O)[C@H](CCCNC(=N)N)NC(=O)[C@@H](Cc2ccc(Cl)cc2Cl)NC(=O)[C@H](CCN)NC1=O` [Example 4, Ac-Arg-cyclo(Glu-Dab-D-Phe(2,4-diCl)-Arg-Trp-Orn)-NH2], for which the Emax on hMC4-R [1] (setting [3]) was 11%; on hMC4-R [1] (setting [4]), 100%. This molecule had an EC50 on hMC4-R [1] (setting [4]) of 0.245 nM. The Ki turned out to be 0.055 nM at hMC4-R [2] and 0.5 nM on MC1-R.
Turning to `CC(=O)N[C@@H](CCCNC(=N)N)C(=O)N[C@H]1CCC(=O)NCCC[C@@H](C(N)=O)NC(=O)[C@H](Cc2c[nH]c3ccccc23)NC(=O)[C@H](CCCNC(=N)N)NC(=O)[C@@H](Cc2ccc(Cl)c(Cl)c2)NC(=O)[C@H](CCN)NC1=O` [Example 5, Ac-Arg-cyclo(Glu-Dab-D-Phe(3,4-diCl)-Arg-Trp-Orn)-NH2], the Emax at hMC4-R [1] (setting [3]) turned out to be 5%; at hMC4-R [1] (setting [4]), 92%. At hMC4-R [1] (setting [4]), this molecule registered an EC50 of 0.38 nM. Moreover, the Ki at hMC4-R [2] stood at 0.055 nM; on MC1-R it was 0.2 nM.
Consider `CC(=O)N[C@@H](CCCNC(=N)N)C(=O)N[C@H]1CCC(=O)NCCC[C@@H](C(N)=O)NC(=O)[C@H](Cc2c[nH]c3ccccc23)NC(=O)[C@H](CCCNC(=N)N)NC(=O)[C@@H](Cc2cccc(C#N)c2)NC(=O)[C@H](CCN)NC1=O` [Example 6, Ac-Arg-cyclo(Glu-Dab-D-Phe(3-CN)-Arg-Trp-Orn)-NH2], for which the EC50 was determined as 37 nM at hMC4-R [1] (setting [3]) and 2 nM at hMC4-R [1] (setting [4]). Further, the Emax on hMC4-R [1] (setting [3]) turned out to be 29%; on hMC4-R [1] (setting [4]), 100%. In addition, the Ki at hMC4-R [2] is 33 nM; at MC1-R, 43 nM.
For `CC(=O)N[C@@H](CCCNC(=N)N)C(=O)N[C@H]1CCC(=O)NCCC[C@@H](C(N)=O)NC(=O)[C@H](Cc2c[nH]c3ccccc23)NC(=O)[C@H](CCCNC(=N)N)NC(=O)[C@@H](Cc2cccc(F)c2)NC(=O)[C@H](CCN)NC1=O` [Example 10, Ac-Arg-cyclo(Glu-Dab-D-Phe(3-F)-Arg-Trp-Orn)-NH2], the EC50 at hMC4-R [1] (setting [3]) stood at 0.45 nM; on hMC4-R [1] (setting [4]), 0.17 nM. For the same molecule, the Emax came to 77% at hMC4-R [1] (setting [3]) and 94% at hMC4-R [1] (setting [4]). Further, the Ki on hMC4-R [2] and on MC1-R was 2 nM each time.
As for `CC(=O)N[C@@H](CCCNC(=N)N)C(=O)N[C@H]1CCC(=O)NCCC[C@@H](C(N)=O)NC(=O)[C@H](Cc2c[nH]c3ccccc23)NC(=O)[C@H](CCCNC(=N)N)NC(=O)[C@@H](Cc2ccc(F)cc2)NC(=O)[C@H](CCN)NC1=O` [Example 11, Ac-Arg-cyclo(Glu-Dab-D-Phe(4-F)-Arg-Trp-Orn)-NH2], the values for the EC50 on hMC4-R [1] (setting [3]) and on hMC4-R [1] (setting [4]) were 0.065 nM and 0.06 nM, respectively. Besides, the values for the Emax at hMC4-R [1] (setting [3]) and on hMC4-R [1] (setting [4]) were 83% and 90%, respectively. Further, the Ki at hMC4-R [2] was 0.25 nM; at MC1-R, 0.5 nM.
For the molecule `CC(=O)N[C@@H](CCCNC(=N)N)C(=O)N[C@H]1CCC(=O)NCCC[C@@H](C(N)=O)NC(=O)[C@H](Cc2c[nH]c3ccccc23)NC(=O)[C@H](CCCNC(=N)N)NC(=O)[C@@H](Cc2ccccc2C(F)(F)F)NC(=O)[C@H](CCN)NC1=O` [Example 13, Ac-Arg-cyclo(Glu-Dab-D-Phe(2-CF3)-Arg-Trp-Orn)-NH2], the figures for the EC50 on hMC4-R [1] (setting [3]) and on hMC4-R [1] (setting [4]) were 0.125 nM and 0.06 nM, respectively. In addition, the Emax on hMC4-R [1] (setting [3]) was 85%; on hMC4-R [1] (setting [4]) it was 96%. Further, the Ki at hMC4-R [2] worked out at 0.6 nM; at MC1-R it was 3 nM.
With `COc1ccc(C[C@H]2NC(=O)[C@H](CCN)NC(=O)[C@@H](NC(=O)[C@H](CCCNC(=N)N)NC(C)=O)CCC(=O)NCCC[C@@H](C(N)=O)NC(=O)[C@H](Cc3c[nH]c4ccccc34)NC(=O)[C@H](CCCNC(=N)N)NC2=O)cc1` [Example 16, Ac-Arg-cyclo(Glu-Dab-D-Phe(4-OMe)-Arg-Trp-Orn)-NH2], the EC50 at hMC4-R [1] (setting [3]) came out at 0.15 nM; at hMC4-R [1] (setting [4]) it was 0.16 nM. For the same molecule, the Emax at hMC4-R [1] (setting [3]) turned out to be 28%; at hMC4-R [1] (setting [4]) it was 97%. Moreover, the Ki on hMC4-R [2] is 0.25 nM; on MC1-R, 0.15 nM.
As to `CC(=O)N[C@@H](CCCNC(=N)N)C(=O)N[C@H]1CCC(=O)NCCC[C@@H](C(N)=O)NC(=O)[C@H](Cc2c[nH]c3ccccc23)NC(=O)[C@H](CCCNC(=N)N)NC(=O)[C@@H](Cc2ccccc2Cl)NC(=O)[C@H](CO)NC1=O` [Example 31, Ac-Arg-cyclo(Glu-Ser-D-Phe(2-Cl)-Arg-Trp-Orn)-NH2], on hMC4-R [1] (setting [3]), the concentration for a half-maximal effect (EC50) came to 7 nM. Also, the Emax on hMC4-R [1] (setting [3]) came out at 33%; at hMC4-R [1] (setting [4]), 98%. The Ki at hMC4-R [2] was 8 nM; at MC1-R, 300 nM.
For `CC(=O)N[C@@H](CCCNC(=N)N)C(=O)N[C@H]1CCC(=O)NCCC[C@@H](C(N)=O)NC(=O)[C@H](Cc2c[nH]c3ccccc23)NC(=O)[C@H](CCCNC(=N)N)NC(=O)[C@@H](Cc2ccccc2Cl)NC(=O)[C@H]([C@@H](C)O)NC1=O` [Example 32, Ac-Arg-cyclo(Glu-Thr-D-Phe(2-Cl)-Arg-Trp-Orn)-NH2] the same measures were 18 nM, 34%, 96%, 11 nM and 540 nM.
With `CC(=O)N[C@@H](CCCNC(=N)N)C(=O)N[C@H]1CCC(=O)NCCC[C@@H](C(=O)O)NC(=O)[C@H](Cc2c[nH]c3ccccc23)NC(=O)[C@H](CCCNC(=N)N)NC(=O)[C@@H](Cc2ccc(C#N)cc2)NC(=O)[C@H](CCC(N)=O)NC1=O` [Example 86, Ac-Arg-cyclo(Glu-Gln-D-Phe(4-CN)-Arg-Trp-Orn)-OH], on hMC4-R [1] (setting [3]), a half-maximal response (EC50) required 9 nM and the Emax amounted to 36%. Also, on hMC4-R [1] (setting [4]), the Emax amounted to 96%. The same molecule gave a Ki on MC1-R of 3970 nM.
As for `CC(=O)N[C@@H](CCCNC(=N)N)C(=O)N[C@H]1CCC(=O)NCCC[C@@H](C(N)=O)NC(=O)[C@H](Cc2c[nH]c3ccccc23)NC(=O)[C@H](CCCNC(=N)N)NC(=O)[C@@H](Cc2ccc(C#N)cc2)NC(=O)[C@H](CC(=O)O)NC1=O` [Example 106, Ac-Arg-cyclo(Glu-Asp-D-Phe(4-CN)-Arg-Trp-Orn)-NH2] (Ac-RED[dPhe(4-CN)]RW[Orn]-NH2; lactam 2-7), the Emax on hMC4-R [1] (setting [3]) turned out to be 3%; on hMC4-R [1] (setting [4]), 77%. On MC1-R, this molecule came in with a Ki of 10000 nM.
`CC(=O)N[C@@H](CCCNC(=N)N)C(=O)N[C@H]1CCC(=O)NCCC[C@@H](C(=O)O)NC(=O)[C@H](Cc2c[nH]c3ccccc23)NC(=O)[C@H](CCCNC(=N)N)NC(=O)[C@@H](Cc2ccc(C#N)cc2)NC(=O)[C@H](CC(=O)O)NC1=O` [Example 107, Ac-Arg-cyclo(Glu-Asp-D-Phe(4-CN)-Arg-Trp-Orn)-OH] (Ac-RED[dPhe(4-CN)]RW[Orn]-OH; lactam 2-7): the Emax turned out to be 4% on hMC4-R [1] (setting [3]) and 64% at hMC4-R [1] (setting [4]). At MC1-R, this molecule displayed a Ki of 10000 nM.
As to `CC(=O)N[C@@H](CCCNC(=N)N)C(=O)N[C@H]1CCC(=O)NCCC[C@@H](C(N)=O)NC(=O)[C@H](Cc2c[nH]c3ccccc23)NC(=O)[C@H](CCCNC(=N)N)NC(=O)[C@@H](Cc2ccc(C#N)cc2)NC(=O)[C@H](CCC(=O)O)NC1=O` [Example 108, Ac-Arg-cyclo(Glu-Glu-D-Phe(4-CN)-Arg-Trp-Orn)-NH2] (Ac-REE[dPhe(4-CN)]RW[Orn]-NH2; lactam 2-7), the Emax at hMC4-R [1] (setting [3]) turned out to be 3%; at hMC4-R [1] (setting [4]) it was 59%. In addition, the midpoint of the response at hMC4-R [1] (setting [4]), the EC50, lay at 9 nM. Further, on MC1-R, the affinity corresponds to a Ki of 10000 nM.
